Source: patent EP0050212A1, “5-Substituted-9-cyane-methylene-dithieno(3,4-b:4',3'-e) azepines, process for their preparation and pharmaceutical compositions containing them” (BASF Aktiengesellschaft, priority 1980, dated 1982)

Experiments:
Ratten [1] = assay: Central anticholinergic effect: suppression of pilocarpine-induced scratching; type: in vivo; conditions: for ED50: ip, 0.5 h, rat, intraperitoneal 30 min before Pilocarpin . HCl 50 mg/kg i.v., absence of scratching within 2 min, probit analysis, read-out: Zentral-anticholinerge Wirkung ED50; for Zentral-anticholinerge Wirkung R.W.: relative Wirksamkeit = ED50 Vergleichssubstanz / ED50 Beispiel, Clozapin = 1,0
Experimental: 4. Zentral-anticholinerge Wirkung
Zur Prüfung auf zentrale anticholinerge Wirkung wird durch Pilocarpin eine cholinerge Stimulierung ausgelöst. Ratten zeigen nach rascher intravenöser Injektion von Pilocarpin . HC1 (50 mg/kg) alternierende Kratzbewegungen der Hinterpfoten; weitere zentral ausgelöste Symptome sind Kieferbewegungen und Tremor. ALs Zeichen peripherer übererregung können Speichelfluß und Chromodakryorrhoe beobachtet werden (Kreiskott, Arch. exp. Path. Pharmak. 247, 317, 1964). Die Prüfsubstanzen werden 30 min vor Pilocarpin intraperitoneal verabfolgt. Kriterium für einen Substanzeffekt ist das Ausbleiben des Kratzens innerhalb 2 min nach Pilocarpin-Injektion. Für dieses Symptom wird als mittlere Hemmdosis (ED50) mittels Probitanalyse nach Finney diejenige Dosis der Prüfsubstanz ermittelt, welche die Kratzabläufe bei der Hälfte der Tiere unterdrückt.

Kaninchens = assay: Muscle-relaxant effect: tonic stretch reflex of the gastrocnemius; type: in vivo, Kaninchen; conditions: for ED50: Oryctolagus cuniculus, rabbit, intravenous, tonic stretch reflex impulse counts relative to pre-dose values, read-out: Muskelrelaxation ED50; for Muskelrelaxation R.W.: relative Wirksamkeit = ED50 Vergleichssubstanz / ED50 Beispiel, Clozapin = 1,0
Source text: 2. […] auf der Quantifizierung des tonischen Dehnungsreflexes am Gastocnemius des […] et al., Arch. Pharmacol. exp. Path. 266, 462, 1970). Das Kaninchen wird in einer speziellen Apparatur fixiert, die es erlaubt, die Pfote im Sprunggelenk in […] und reproduzierbarer Weise zu beugen. Durch die Beugung wird in der Wadenmuskulatur ein tonischer Dehnungsreflex ausgelöst. Die […] des Muskels während der Kontraktion wird registriert und die Einzelimpulse gezählt. Die Dehnung (Dauer 5 s) wird in Minutenabständen wiederholt. Nach Erreichen einer konstanten Impulszahl (Kontrollwert) wird die Testsubstanz intravenös appliziert. Die Impulszahlen nach Applikation werden auf die Vorwerte bezogen.

NMRI-Mäusen = assay: Sedative effect: inhibition of novelty-induced orientation hypermotility (photoelectric measurement); type: in vivo; conditions: for ED50: Mus musculus, 0.5 h, oral, female NMRI mice, measured 30 min after dosing for 30 min, dose giving 50 % decrease of orientation hypermotility, read-out: Sedation ED50; for Sedation R.W.: relative Wirksamkeit = ED50 Vergleichssubstanz / ED50 Beispiel, Clozapin = 1,0
Experimental: 4 bis 8 Gruppen von Jeweils 3 weiblichen NMRI-Mäusen erhalten die Substanzen oral appliziert. Die photoelektrische Bestimmung der durch eine neue Umgebung induzierten Orientierungshypermotilität erfolgt 30 min nach der Applikation der Substanzen für eine Dauer von 30 min. " Als ED50 wird die Dosis bestimmt, welche im Ver- gleich zu Placebo-behandelten Kontrolltieren eine Abnahme der Orientierungshypermotilität um 50 % bewirkt.

Ratten [2] = assay: Antimethamphetamine effect: suppression of methamphetamine-induced sniffing; type: in vivo; conditions: for ED50: ip, 0.5 h, rat, intraperitoneal 30 min before Methamphetamin . HCl 2,5 mg/kg i.v., absence of sniffing within 5 min, probit analysis, read-out: Methamphetaminantagonismus ED50; for Methamphetaminantagonismus R.W.: relative Wirksamkeit = ED50 Vergleichssubstanz / ED50 Beispiel, Clozapin = 1,0
Experimental: Antimethamphetamin-Wirkung
Methamphetamin . […] Die Prüfsubstanzen werden 30 min vor Methamphetamin intraperitoneal verabfolgt. Kriterium für einen Substanzeffekt ist das Ausbleiben der Schnüffelbewegungen innerhalb eines 5-minütigen Beobachtungszeitraumes nach Meth- amphetamin-Injektion. Als mittlere Hemmdosis (ED50) ' wird mittels Probitanalyse die Dosis ermittelt, die das Symptom bei der Hälfte der Tiere verhindert.

Structure (SMILES) | ED50 (Ratten [1]) [mg/kg] | Zentral-anticholinerge Wirkung R.W. (Ratten [1]) | ED50 (Kaninchens) [mg/kg] | Muskelrelaxation R.W. (Kaninchens) | ED50 (NMRI-Mäusen) [mg/kg] | Sedation R.W. (NMRI-Mäusen) | ED50 (Ratten [2]) [mg/kg] | Methamphetaminantagonismus R.W. (Ratten [2])
CN1CCN(C2=Nc3cscc3C(=CC#N)c3cscc32)CC1 [Beispiel 1a, 9-Cyanmethylen-5-(4-methyl-piperazin-1-yl)-dithieno-[3.4-b:4'.3'-e]azepin] | 2.8 | 1,1 | 0.14 | 0,33 | 7.4 | 0,64 | 5.1 | 7,25
CN1CCN(C2=Nc3ccccc3Cc3ccccc32)CC1 [Perlapin, reference compound] | 14 | 0,22 | 0.11 | 0,42 | 2.1 | 2,24 | 31 | 1,2
CN1CCN(C2=Nc3c(csc3Cl)C(=CC#N)c3cscc32)CC1 (mixture of isomers) [Beispiel 2, cis, trans-3-Chlor-9-cyanmethyl en-5-(4-methylpiperazin-1--yl)-dithieno[3.4-b:4'.3'-e]azepin] | – | – | 0.08 | 0,56 | 9.6 | 0,49 | – | –
CN1CCN(C2=Nc3cc(Cl)ccc3Nc3ccccc32)CC1 [Clozapin, reference compound] | 3.1 | 1,0 | – | 1,0 | 4.7 | 1,0 | 37 | 1,0
CN1CCN(C2=Nc3cscc3/C(=C\C#N)c3cscc32)CC1 [1b trans] | 13 | 0,24 | > 1 | <0,046 | > 21.5 | <0,22 | 77 | 0,48
CCN1CCN(C2=Nc3cscc3C(=CC#N)c3cscc32)CC1 (mixture of isomers) [Beispiel 6, cis, trans-9-Cyanmethylen-5-(4-äthyl-piperazin-1-yl)-di-thieno[3.4-b:4'.3'-elazepin] | – | – | 0.22 | 0,21 | 10.6 | 0,44 | 42 | 0,88
CN1CCN(C2=Nc3cscc3/C(=C/C#N)c3cscc32)CC1 [1b cis] | 0.6 | 5,2 | 0.22 | 0,21 | 5 | 0,94 | 5.5 | 6,72
